The nature of series [1]: In vivo pharmacokinetics, oral administration. Also on record: species or system C57BL/6 mice. The settings on record: DQ quantified in whole blood after po 20 mg/kg of the O-carbamate, mice; for AUC0-∞ of DQ / Cmax: 20 mg/kg; for Cmax: read-out: Cmax of DQ. On the procedure: Healthy C57BL/6 mice each weighing approximately 25 g were maintained at the University of Cape Town animal facility. Mice were housed in 27 × 21 × 28 cm cages (n = 3) under controlled environmental conditions at 22 ± 2°C, humidity of 55 ± 15% and a 12-hour light/dark cycle. Food and water were available ad libitum. Mice were acclimatised to the experimental environment for 4–5 days prior to initiating the experiments. RMB005, −059 and −060 were prepared in an aqueous solution of HPMC containing 0.2% Tween 80. The weighed compound was sonicated and vortexed to obtain a homogenous suspension. Oral dosing of 20 mg/kg was achieved via oral gavage. The total volume per administration was 200 μL. Blood samples were collected post-dose in lithium heparin microvials via tail bleeding at predetermined intervals at 0.5, 1, 3, 5, 8, 10, and 24 h. Samples were gently vortexed and stored at −80°C until analysis. A quantitative LC-MS/MS assay was used to determine whole-blood concentrations of RMB005, −059 and −060. Whole blood samples (20 μL) were treated with 100 μL ice cold acetonitrile containing the compound RMB073 used previously for determination of whole blood concentrations in analysis of TB-active compounds, as internal standard (200 ng/ml) ([Tanner et al., 2019]). The mixture was vortexed vigorously for 1 min, and 5 µL of the supernatant were injected onto the analytical column following centrifugation (5,590 g for 5 min). Gradient elution was carried out using a Gemini NX-C18 analytical column (5 μm, 2.1 mm × 50 mm). The aqueous mobile phase consisted of 5 mm ammonium acetate with 0.1% acetic acid in deionised water, while the organic phase consisted of 0.1% acetic acid in acetonitrile. A Shimadzu HPLC and reverse phase Gemini NX-C18 column coupled to an AB Sciex 3200 Q TRAP MS was operated at unit resolution in the multiple reaction monitoring (MRM) mode. […] The calibration standards ranged from 2 ng/mL to 3,000 ng/mL for RMB005, and 2 ng/mL to 4,000 ng/mL for RMB059, −060 and DQ. Drug concentration versus time plots for each compound were used to determine maximal drug concentration C max, time T max to reach C max, elimination half-life t 1/2 and the area under the concentration-time curve from time zero to infinity, AUC0-inf. From these values the following PK parameters—clearance CL, volume of distribution (Vd) and oral bioavailability (BA) were determined using the non-compartmental analysis Microsoft Excel Add-In PKSolver ([Zhang et al., 2010]).

The nature of series [2]: In vivo pharmacokinetics, intravenous administration. Also on record: species or system C57BL/6 mice. Conditions: mice, 5 mg/kg per table footnote, 5 mg/kg; for t1/2 of DQ: DQ quantified in whole blood after iv dosing of the O-carbamate (RMB059 or RMB060); for CL of DQ / Vd of DQ: DQ quantified in whole blood after iv dosing of the O-carbamate. Here is the method:
Healthy C57BL/6 mice each weighing approximately 25 g were maintained at the University of Cape Town animal facility. Mice were housed in 27 × 21 × 28 cm cages (n = 3) under controlled environmental conditions at 22 ± 2°C, humidity of 55 ± 15% and a 12-hour light/dark cycle. Food and water were available ad libitum. Mice were acclimatised to the experimental environment for 4–5 days prior to initiating the experiments. […] The total volume of administration was 80 μL. Blood samples were collected post-dose in lithium heparin microvials via tail bleeding at predetermined intervals at 0.16, 0.5, 1, 3, 5, 8, 10, and 24 h. Samples were gently vortexed and stored at −80°C until analysis. A quantitative LC-MS/MS assay was used to determine whole-blood concentrations of RMB005, −059 and −060. Whole blood samples (20 μL) were treated with 100 μL ice cold acetonitrile containing the compound RMB073 used previously for determination of whole blood concentrations in analysis of TB-active compounds, as internal standard (200 ng/ml) ([Tanner et al., 2019]). The mixture was vortexed vigorously for 1 min, and 5 µL of the supernatant were injected onto the analytical column following centrifugation (5,590 g for 5 min). Gradient elution was carried out using a Gemini NX-C18 analytical column (5 μm, 2.1 mm × 50 mm). The aqueous mobile phase consisted of 5 mm ammonium acetate with 0.1% acetic acid in deionised water, while the organic phase consisted of 0.1% acetic acid in acetonitrile. A Shimadzu HPLC and reverse phase Gemini NX-C18 column coupled to an AB Sciex 3200 Q TRAP MS was operated at unit resolution in the multiple reaction monitoring (MRM) mode. […] The calibration standards ranged from 2 ng/mL to 3,000 ng/mL for RMB005, and 2 ng/mL to 4,000 ng/mL for RMB059, −060 and DQ. Drug concentration versus time plots for each compound were used to determine maximal drug concentration C max, time T max to reach C max, elimination half-life t 1/2 and the area under the concentration-time curve from time zero to infinity, AUC0-inf. From these values the following PK parameters—clearance CL, volume of distribution (Vd) and oral bioavailability (BA) were determined using the non-compartmental analysis Microsoft Excel Add-In PKSolver ([Zhang et al., 2010]).

For `CCCCCCCCCCOc1cc2c(O)c(C(=O)OCC)cnc2cc1OCC` [DQ from RMB059], in series [1], the “Tmax of DQ” value was determined as 1.67 ± 0.67 h, the “AUC0-∞ of DQ” value amounted to 101 ± 44 µmol·min/L and the Cmax amounted to 230 ± 50 nM. For the same compound, in series [2], the “t1/2 of DQ” value was 4.79 ± 1.66 h, the “CL of DQ” value was 19.40 ± 3.14 mL/min/kg and the “Vd of DQ” value came to 8.00 ± 2.96 L/kg.

On to `CCCCCCCCCCOc1cc2c(O)c(C(=O)OCC)cnc2cc1OCC` [DQ from RMB060], for which, in series [1], the “Tmax of DQ” value is 1.67 ± 0.67 h, the “AUC0-∞ of DQ” value was found to be 63 ± 9 µmol·min/L and the Cmax was determined as 110 ± 10 nM. In series [2], the “t1/2 of DQ” value stood at 4.66 ± 1.16 h, the “CL of DQ” value stood at 21.50 ± 3.38 mL/min/kg and the “Vd of DQ” value came to 8.88 ± 2.87 L/kg.

One may read the Cmax as the peak of the concentration-time curve.

(Values after publication PMC9450014, “The evaluation of ADME and pharmacokinetic properties of decoquinate derivatives for the treatment of malaria” (Frontiers in Pharmacology, 2022).)
